Data reported in the NIST ThermoML archive (doi:10.1016/j.fluid.2015.06.041).
± gives the expanded uncertainty stated by the source.

Experiment: xn = mol fraction of the nth substance listed
Conditions: 101 kPa, Liquid; for speed of sound: Frequency=2 MHz, Linear variable-path acoustic interferometer; for mass density: Vibrating tube method; for viscosity: Capillary tube (Ostwald / Ubbelohde) method

NCCN [ethane-1,2-diamine] + C1COCCO1
Conditions	mass density, 298.15 K [kg/m3]	mass density, 308.15 K [kg/m3]	mass density, 318.15 K [kg/m3]	speed of sound, 298.15 K [m/s]	viscosity, 298.18 K [mPa·s]	viscosity, 308.15 K [mPa·s]	viscosity, 318.15 K [mPa·s]
x2 = 0	894.79 ± 0.23	885.63 ± 0.23	867.62 ± 0.24	1670.8 ± 2	1.276 ± 0.039	1.107 ± 0.034	0.9445 ± 0.029
x2 = 0.08	907.17 ± 0.22	897.75 ± 0.23	880.1 ± 0.23	1625.9 ± 1.9	1.263 ± 0.039	1.092 ± 0.034	0.9318 ± 0.029
x2 = 0.1636	919.48 ± 0.21	909.85 ± 0.21	892.74 ± 0.21	1585.3 ± 1.8	1.25 ± 0.038	1.078 ± 0.033	0.9205 ± 0.028
x2 = 0.2511	931.76 ± 0.19	921.06 ± 0.19	905.51 ± 0.2	1546.2 ± 1.8	1.239 ± 0.038	1.066 ± 0.033	0.9111 ± 0.028
x2 = 0.3428	944.28 ± 0.18	934.33 ± 0.18	918.46 ± 0.18	1506.8 ± 1.7	1.228 ± 0.038	1.053 ± 0.032	0.9021 ± 0.028
x2 = 0.385	949.92 ± 0.17	939.89 ± 0.17	924.35 ± 0.17	1488.8 ± 1.7	1.223 ± 0.037	1.048 ± 0.032	0.8983 ± 0.028
x2 = 0.5399	970.35 ± 0.15	959.96 ± 0.15	945.42 ± 0.15	1428.4 ± 1.6	1.206 ± 0.037	1.033 ± 0.032	0.8929 ± 0.027
x2 = 0.6461	984.1 ± 0.1	973.48 ± 0.14	959.55 ± 0.14	1395.1 ± 1.6	1.197 ± 0.037	1.026 ± 0.031	0.8913 ± 0.027
x2 = 0.7578	998.37 ± 0.13	987.59 ± 0.13	974.27 ± 0.13	1369.6 ± 1.5	1.189 ± 0.036	1.019 ± 0.031	0.8918 ± 0.027
x2 = 0.8756	1013.03 ± 0.12	1002.04 ± 0.12	989.43 ± 0.12	1353.7 ± 1.5	1.182 ± 0.036	1.016 ± 0.031	0.8902 ± 0.027

ClCCCl [1,2-dichloroethane] + C1COCCO1
Conditions	mass density, 298.15 K [kg/m3]	mass density, 308.15 K [kg/m3]	mass density, 318.15 K [kg/m3]	speed of sound, 298.15 K [m/s]	viscosity, 298.15 K [mPa·s]	viscosity, 308.15 K [mPa·s]	viscosity, 318.15 K [mPa·s]
x2 = 0	1246.37 ± 0.16	1231.21 ± 0.16	1214.55 ± 0.16	1193.6 ± 1.3	0.7804 ± 0.024	0.6744 ± 0.021	0.5719 ± 0.017
x2 = 0.0934	1221.34 ± 0.19	1206.17 ± 0.19	1189.14 ± 0.18	1198.9 ± 1.3	0.8045 ± 0.025	0.6918 ± 0.021	0.5856 ± 0.018
x2 = 0.1881	1197.17 ± 0.18	1182.34 ± 0.18	1164.97 ± 0.17	1204.7 ± 1.3	0.8332 ± 0.025	0.7127 ± 0.022	0.6042 ± 0.018
x2 = 0.2843	1173.99 ± 0.17	1159.5 ± 0.17	1141.96 ± 0.17	1211.7 ± 1.3	0.864 ± 0.026	0.737 ± 0.023	0.6266 ± 0.019
x2 = 0.3819	1151.77 ± 0.17	1137.63 ± 0.16	1120 ± 0.16	1218.7 ± 1.4	0.8974 ± 0.027	0.7628 ± 0.023	0.6499 ± 0.02
x2 = 0.4258	1142.09 ± 0.16	1128.16 ± 0.16	1110.67 ± 0.15	1222.7 ± 1.4	0.9132 ± 0.028	0.7747 ± 0.024	0.6611 ± 0.02
x2 = 0.5816	1109.56 ± 0.15	1096.17 ± 0.15	1079.43 ± 0.15	1240.4 ± 1.4	0.9729 ± 0.03	0.8211 ± 0.025	0.705 ± 0.022
x2 = 0.6838	1089.25 ± 0.15	1076.38 ± 0.14	1060.46 ± 0.14	1256.1 ± 1.4	1.016 ± 0.031	0.8551 ± 0.026	0.7374 ± 0.023
x2 = 0.7875	1069.16 ± 0.14	1056.58 ± 0.14	1042.21 ± 0.14	1277.4 ± 1.4	1.064 ± 0.032	0.8949 ± 0.027	0.775 ± 0.024
x2 = 0.8929	1048.86 ± 0.14	1036.88 ± 0.14	1024.08 ± 0.13	1306.8 ± 1.4	1.117 ± 0.034	0.9435 ± 0.029	0.8234 ± 0.025

NCCO [2-aminoethan-1-ol] + C1COCCO1
Conditions	mass density, 298.15 K [kg/m3]	mass density, 308.15 K [kg/m3]	mass density, 318.15 K [kg/m3]	speed of sound, 298.15 K [m/s]	viscosity, 298.15 K [mPa·s]	viscosity, 308.15 K [mPa·s]	viscosity, 318.15 K [mPa·s]
x2 = 0	1011.79 ± 0.24	1004.68 ± 0.23	998.15 ± 0.23	1716.8 ± 2	18.95 ± 0.58	11.96 ± 0.37	7.913 ± 0.24
x2 = 0.0597	1015.53 ± 0.23	1007.5 ± 0.22	1000.35 ± 0.22	1696.8 ± 2	16.05 ± 0.49	10.32 ± 0.32	6.94 ± 0.21
x2 = 0.1251	1018.05 ± 0.21	1010.07 ± 0.21	1001.77 ± 0.2	1677.7 ± 1.9	13.39 ± 0.41	8.772 ± 0.27	6.01 ± 0.18
x2 = 0.1969	1020.39 ± 0.2	1011.65 ± 0.19	1003.06 ± 0.19	1654.2 ± 1.9	10.97 ± 0.34	7.34 ± 0.23	5.132 ± 0.16
x2 = 0.276	1022.47 ± 0.18	1013.21 ± 0.18	1004.08 ± 0.17	1626.7 ± 1.8	8.798 ± 0.27	6.031 ± 0.18	4.321 ± 0.13
x2 = 0.3639	1024.23 ± 0.17	1014.47 ± 0.16	1004.75 ± 0.16	1593.6 ± 1.8	6.892 ± 0.21	4.851 ± 0.15	3.555 ± 0.11
x2 = 0.4618	1025.64 ± 0.15	1015.23 ± 0.15	1004.92 ± 0.14	1557.5 ± 1.7	5.249 ± 0.16	3.804 ± 0.12	2.867 ± 0.088
x2 = 0.5716	1026.41 ± 0.14	1015.49 ± 0.14	1005.06 ± 0.13	1517.9 ± 1.7	3.868 ± 0.12	2.898 ± 0.089	2.255 ± 0.069
x2 = 0.6958	1027.09 ± 0.13	1015.74 ± 0.12	1004.96 ± 0.12	1471.8 ± 1.6	2.739 ± 0.084	2.132 ± 0.065	1.719 ± 0.053
x2 = 0.8373	1027.58 ± 0.12	1016.22 ± 0.12	1005.1 ± 0.11	1417.1 ± 1.5	1.849 ± 0.056	1.506 ± 0.046	1.266 ± 0.039
